Where “and” joins values, the source holds several entries; their conditions need not be identical. Identical values can stand only once. Toxic doses and inconclusive results are not listed. Rule for the calls: active = survival T/C of 150% or more; inactive = T/C below 125% in these data. Square brackets hold non-standard residues; d marks the D form. Peptide text beside a SMILES is read from it. Tyr(3,5-I2) = N[CH](Cc1cc(I)c(O)c(I)c1)C(=O)O
Tested on: P388 leukemia ip, CD2F1 mice, survival T/C
Test: NCI In Vivo Anticancer Drug Screen. Data for tumor model P388 Leukemia (intraperitoneal) in CD2F1 (CDF1) mice
Settings: endpoint: median survival time, higher = longer survival
Outline: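 Mice carrying the transplanted tumor received test compound or vehicle. Survival was recorded in each group, and the value is the treated-group measurement divided by that of the vehicle-treated control group.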

[1] = dose: 100.0 mg/kg/injection, schedule: Q04DX003 (ip), vehicle: saline with Tween-80
[2] = dose: 100.0 mg/kg/injection, schedule: Q01DX001 (ip), vehicle: saline with Tween-80
[3] = dose: 200.0 mg/kg/injection, schedule: Q01DX001 (ip), vehicle: saline with Tween-80
[4] = dose: 400.0 mg/kg/injection, schedule: Q01DX001 (ip), vehicle: saline with Tween-80
[5] = dose: 50.0 mg/kg/injection, schedule: Q01DX005 (ip), vehicle: saline with Tween-80
[6] = dose: 100.0 mg/kg/injection, schedule: Q01DX005 (ip), vehicle: saline with Tween-80
[7] = dose: 200.0 mg/kg/injection, schedule: Q01DX005 (ip), vehicle: saline with Tween-80
[8] = dose: 50.0 mg/kg/injection, schedule: Q01DX005 (ip), vehicle: Klucel (hydroxypropylcellulose) (HPC)
[9] = dose: 100.0 mg/kg/injection, schedule: Q01DX005 (ip), vehicle: Klucel (hydroxypropylcellulose) (HPC)
[10] = dose: 200.0 mg/kg/injection, schedule: Q01DX005 (ip), vehicle: Klucel (hydroxypropylcellulose) (HPC)
[11] = dose: 50.0 mg/kg/injection, schedule: Q01DX009 (ip), vehicle: Klucel (hydroxypropylcellulose) (HPC)
[12] = dose: 100.0 mg/kg/injection, schedule: Q01DX009 (ip), vehicle: Klucel (hydroxypropylcellulose) (HPC)
[13] = dose: 200.0 mg/kg/injection, schedule: Q01DX009 (ip), vehicle: Klucel (hydroxypropylcellulose) (HPC)

Measured: T/C

CC1CC2(OC2C)C(=O)OC2CCN(C)C/C=C(/COC(=O)C1(C)O)C2=O (configuration not stated)
inactive: dose: 3.12 mg/kg/injection, schedule: Q01DX009 (ip), vehicle: Klucel (hydroxypropylcellulose) (HPC) 105 % of control | dose: 6.25 mg/kg/injection, schedule: Q01DX009 (ip), vehicle: Klucel (hydroxypropylcellulose) (HPC) 99 % of control | dose: 12.5 mg/kg/injection, schedule: Q01DX009 (ip), vehicle: Klucel (hydroxypropylcellulose) (HPC) 103 % of control | dose: 25.0 mg/kg/injection, schedule: Q01DX009 (ip), vehicle: Klucel (hydroxypropylcellulose) (HPC) 99 % of control | dose: 40.0 mg/kg/injection, schedule: Q01DX009 (ip), vehicle: Klucel (hydroxypropylcellulose) (HPC) 110 % of control | dose: 50.0 mg/kg/injection, schedule: Q04DX002 (ip), vehicle: saline 108 % of control | dose: 80.0 mg/kg/injection, schedule: Q01DX009 (ip), vehicle: Klucel (hydroxypropylcellulose) (HPC) 110 % of control | dose: 100.0 mg/kg/injection, schedule: Q04DX002 (ip), vehicle: saline 101 % of control | dose: 160.0 mg/kg/injection, schedule: Q01DX009 (ip), vehicle: Klucel (hydroxypropylcellulose) (HPC) 100 % of control | dose: 200.0 mg/kg/injection, schedule: Q04DX002 (ip), vehicle: saline 106 % of control

CCSc1nc(C=O)c(Cc2ccc(Br)cc2)c(=O)[nH]1
inactive: [1] 110 % of control | dose: 200.0 mg/kg/injection, schedule: Q04DX003 (ip), vehicle: saline with Tween-80 107 % of control | dose: 400.0 mg/kg/injection, schedule: Q04DX003 (ip), vehicle: saline with Tween-80 88 % of control

COc1ccc(-c2c(C(=O)O)oc3cc(O)ccc3c2=O)cc1OC
inactive: dose: 60.0 mg/kg/injection, schedule: Q01DX005 (ip), vehicle: saline with Tween-80 99 % of control | dose: 120.0 mg/kg/injection, schedule: Q01DX005 (ip), vehicle: saline with Tween-80 97 % of control | dose: 240.0 mg/kg/injection, schedule: Q01DX005 (ip), vehicle: saline with Tween-80 96 % of control

O=C(N/N=C/c1cc(Br)cc(Br)c1[O-])c1ccccc1.O=C(N/N=C/c1cc(Br)cc(Br)c1[O-])c1ccccc1.[Fe+2]
inactive: [2] 86 % of control | [3] 86 % of control | [4] 93 % of control

CCCCCCN(CCCCCC)CC(O)c1cccc2ccc(Cl)cc12 (configuration not stated)
inactive: [5] 90 % of control | [6] 95 % of control | [7] 109 % of control

CN1C(c2cccnc2)=NCC12CCCC2
inactive: dose: 7.5 mg/kg/injection, schedule: Q01DX005 (ip), vehicle: saline 98 % of control | dose: 15.0 mg/kg/injection, schedule: Q01DX005 (ip), vehicle: saline 96 % of control | dose: 30.0 mg/kg/injection, schedule: Q01DX005 (ip), vehicle: saline 97 % of control

CC(C)(CO)NC(=O)c1ccc(C(C)(C)C)cc1Br
inactive: [2] 99 % of control | [3] 99 % of control | [4] 100 % of control

CCN1CCCc2cc3c(C(F)(F)F)cc(=O)oc3cc21
inactive: [8] 97 % of control | [9] 106 % of control | [10] 97 % of control

c1ccc(Nc2nnnn2C2CCCCC2)cc1
inactive: dose: 6.25 mg/kg/injection, schedule: Q01DX009 (ip), vehicle: saline 101 % of control | dose: 12.5 mg/kg/injection, schedule: Q01DX009 (ip), vehicle: saline 105 % of control | dose: 25.0 mg/kg/injection, schedule: Q01DX009 (ip), vehicle: saline 100 % of control | dose: 50.0 mg/kg/injection, schedule: Q01DX009 (ip), vehicle: saline 108 % of control

O=C1N(c2ccccc2)C(=O)C2(N(c3ccccc3)CCN2c2ccccc2)N1c1ccccc1
inactive: dose: 100.0 mg/kg/injection, schedule: Q04DX002 (ip), vehicle: saline with Tween-80 88 % of control | dose: 200.0 mg/kg/injection, schedule: Q04DX002 (ip), vehicle: saline with Tween-80 89 % of control | dose: 400.0 mg/kg/injection, schedule: Q04DX002 (ip), vehicle: saline with Tween-80 88 % of control

CC12C(=O)OC(=O)C1CCc1c2ccc2ccccc12 (configuration not stated)
inactive: [5] 107 % of control | [6] 110 % of control | [7] 107 % of control

Cc1[nH]nc2c1NC(=O)OC(C)(C)C2
inactive: [5] 106 % of control | [6] 99 % of control | [7] 101 % of control

COc1cccc(/C=C/C(C)=N/NC(N)=O)c1
inactive: dose: 30.0 mg/kg/injection, schedule: Q01DX005 (ip), vehicle: Klucel (hydroxypropylcellulose) (HPC) 100 % of control | dose: 60.0 mg/kg/injection, schedule: Q01DX005 (ip), vehicle: Klucel (hydroxypropylcellulose) (HPC) 101 % of control | dose: 120.0 mg/kg/injection, schedule: Q01DX005 (ip), vehicle: Klucel (hydroxypropylcellulose) (HPC) 100 % of control | dose: 240.0 mg/kg/injection, schedule: Q01DX005 (ip), vehicle: Klucel (hydroxypropylcellulose) (HPC) 95 % of control

CNC(=O)N(N=O)c1[nH]c(=O)ncc1Br
inactive: dose: 50.0 mg/kg/injection, schedule: Q01DX005 (ip), vehicle: saline + Tween-80 + alcohol 104 % of control | dose: 100.0 mg/kg/injection, schedule: Q01DX005 (ip), vehicle: saline + Tween-80 + alcohol 108 % of control | dose: 200.0 mg/kg/injection, schedule: Q01DX005 (ip), vehicle: saline + Tween-80 + alcohol 118 % of control

O=C(NC(Cc1ccccc1)C(=O)CCl)OCc1ccccc1 (configuration not stated)
inactive: dose: 25.0 mg/kg/injection, schedule: Q01DX009 (ip), vehicle: other 107 % of control | dose: 25.0 mg/kg/injection, schedule: Q04DX003 (ip), vehicle: saline with Tween-80 115 % of control | dose: 50.0 mg/kg/injection, schedule: Q01DX009 (ip), vehicle: other 105 % of control | dose: 50.0 mg/kg/injection, schedule: Q04DX003 (ip), vehicle: saline with Tween-80 111 % of control | [1] 119 % of control

CC(=O)NC(Cc1ccccc1)C(=O)NC(Cc1cc(I)c(O)c(I)c1)C(=O)O (configuration not stated) (Ac-Phe-[Tyr(3,5-I2)]-OH; configuration not given here)
inactive: [8] 93 % of control | [9] 107 % of control | [10] 99 % of control

CC(=O)OC1C=CN(C(C)=O)C(SC(C)(C)C)C1(C)O (configuration not stated)
inactive: [11] 101 % of control and 119 % of control | [12] 107 % of control and 112 % of control | [13] 113 % of control and 120 % of control | dose: 400.0 mg/kg/injection, schedule: Q01DX009 (ip), vehicle: Klucel (hydroxypropylcellulose) (HPC) 110 % of control

COc1cc2c(cc1OC)CN1CCCC1C2 (configuration not stated)
inactive: dose: 6.25 mg/kg/injection, schedule: Q01DX005 (ip), vehicle: saline with Tween-80 97 % of control | dose: 12.5 mg/kg/injection, schedule: Q01DX005 (ip), vehicle: saline with Tween-80 108 % of control | dose: 25.0 mg/kg/injection, schedule: Q01DX005 (ip), vehicle: saline with Tween-80 101 % of control

O=C(NC(=O)C(F)(F)C(F)(F)F)Nc1ccc(Cl)cc1
inactive: [11] 115 % of control | [12] 98 % of control | [13] 101 % of control

CO[C@@H]1[C@H](O)c2ccccc2N1C(C)=O
inactive: dose: 60.0 mg/kg/injection, schedule: Q01DX005 (ip), vehicle: saline 102 % of control | dose: 120.0 mg/kg/injection, schedule: Q01DX005 (ip), vehicle: saline 108 % of control | dose: 240.0 mg/kg/injection, schedule: Q01DX005 (ip), vehicle: saline 101 % of control

Reference: PubChem BioAssay AID330 (DTP/NCI, 2004)
